Test results published in PubChem BioAssay (NCI).
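The compound was tested at five concentrations on cells cultured in 96-well plates, with a 48-hour exposure period. Here, GI50 denotes the concentration required for 50% inhibition of growth. Definition used: TGI = concentration required for complete inhibition of growth.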

Columns and labels:
Assay in all cases: NCI-60 cell line screen, 48 h
MOLT-4 leukemia = tested on: MOLT-4 leukemia
K-562 leukemia = tested on: K-562 leukemia
A498 renal = tested on: A498 renal
MCF7 breast = tested on: MCF7 breast
HCT-15 colon = tested on: HCT-15 colon
SK-MEL-2 melanoma = tested on: SK-MEL-2 melanoma
CCRF-CEM leukemia = tested on: CCRF-CEM leukemia
BT-549 breast = tested on: BT-549 breast
HOP-92 NSCLC = tested on: HOP-92 NSCLC
HL-60(TB) leukemia = tested on: HL-60(TB) leukemia

Row | Structure (SMILES) | GI50 (MOLT-4 leukemia) [µM] | TGI (MOLT-4 leukemia) [µM] | GI50 (K-562 leukemia) [µM] | TGI (K-562 leukemia) [µM] | GI50 (A498 renal) [µM] | TGI (A498 renal) [µM] | GI50 (MCF7 breast) [µM] | TGI (MCF7 breast) [µM] | GI50 (HCT-15 colon) [µM] | TGI (HCT-15 colon) [µM] | GI50 (SK-MEL-2 melanoma) [µM] | TGI (SK-MEL-2 melanoma) [µM] | GI50 (CCRF-CEM leukemia) [µM] | TGI (CCRF-CEM leukemia) [µM] | GI50 (BT-549 breast) [µM] | TGI (BT-549 breast) [µM] | GI50 (HOP-92 NSCLC) [µM] | TGI (HOP-92 NSCLC) [µM] | TGI (HL-60(TB) leukemia) [µM] | GI50 (HL-60(TB) leukemia) [µM]
1 | CCn1c(=O)c2c(=O)c3c4c(oc3oc2c2ccccc21)C(=O)c1ccccc1C4=O | 0.366 | 2.12 | 1.73 | > 100 | 0.461 | > 100 | > 100 | > 100 | > 100 | > 100 | > 100 | > 100 | 1.18 | > 100 | > 36 | > 100 | – | – | – | –
2 | O=C(Nc1ccc(F)cc1)c1cc(S(=O)(=O)Nc2nc3ccccc3o2)c(SCc2ccccc2)cc1Cl | 19.5 | 52.4 | 24.7 | 99.6 | 17.2 | 32.5 | 24.8 | 63.7 | 15.8 | 30.1 | – | – | 12.9 | 31.2 | 18.5 | 38.9 | 18.5 | 42.4 | – | –
3 | Cc1cccc(C)c1NC(=O)C(=O)C(C(=O)c1ccccc1-c1ccccc1)C1OC(=O)c2ccccc21 (stereo unspecified) | – | 58.1 | – | > 100 | – | 48.9 | – | – | – | – | – | 35.6 | – | > 100 | – | – | – | 40 | 88.9 | –
4 | S=c1[nH]c(=S)c2nnn(-c3ccccc3)c2[nH]1 | – | > 100 | – | > 100 | – | – | – | – | – | > 100 | – | > 100 | – | > 100 | – | – | – | > 100 | > 100 | –
5 | N#CC(C(=O)C(=O)Nc1ccc(Cl)cc1)c1ccccc1 (stereo unspecified) | – | > 100 | – | > 100 | – | > 100 | – | – | – | > 100 | – | > 100 | – | > 100 | – | – | – | > 100 | > 100 | –
6 | COc1c[c]([Hg][O]C(C)=O)c(OC)c(NC(=O)CC(C)=O)[c]1[Hg][O]C(C)=O | 2.32 | 6.85 | 1.48 | 5.53 | 8.03 | 22.6 | – | – | 3.11 | – | 13.8 | 28.2 | 1.75 | 5.43 | – | – | – | – | 5.35 | 2.41
7 | O=C1OCC2C1C1c3ccccc3C(O)c3ccccc3C21 (stereo unspecified) | – | > 100 | – | > 100 | – | > 100 | – | – | – | > 100 | – | > 100 | – | > 100 | – | – | – | > 100 | > 100 | –
8 | CC(=O)[O][Ga]([Br])[O]C(C)=O | > 100 | > 100 | > 100 | > 100 | > 100 | > 100 | – | – | – | – | > 100 | > 100 | > 100 | > 100 | – | – | > 100 | > 100 | > 100 | > 100
9 | COC(=O)[C@H]1C=C[C@@H](C)n2c(=O)c3cc4ccccc4cc3c(=O)n21 | – | > 100 | – | > 100 | – | > 100 | – | – | – | > 100 | – | > 100 | – | > 100 | – | – | – | > 100 | > 100 | –
10 | NCCSc1nc(-c2ccccc2)c(-c2ccccc2)o1 | – | – | – | > 100 | – | > 100 | – | > 100 | – | > 100 | – | > 100 | – | – | – | > 100 | – | > 100 | – | –
11 | O=CN1CCN(CC(O)CN2CCCCC2)CC1 (stereo unspecified) | – | > 100 | – | > 100 | – | > 100 | – | > 100 | – | > 100 | – | > 100 | – | > 100 | – | > 100 | – | – | > 100 | –
12 | CC(C)N(CCn1c2c3ccccc3ccc2c2oc(=O)c3ccccc3c21)C(C)C | – | > 100 | – | > 100 | – | > 100 | – | – | – | > 100 | – | > 100 | – | > 100 | – | – | – | > 92.3 | > 100 | –
13 | Cc1nc([N+](=O)[O-])cn1CC(=N)N | – | > 100 | – | > 100 | – | > 100 | – | – | – | > 100 | – | > 100 | – | > 100 | – | – | – | – | > 100 | –
14 | Cc1ccc(NC(=O)CSc2nnc(-c3ccc(N=Cc4ccc(Cl)cc4)cc3)o2)cc1 | – | > 100 | – | > 100 | – | – | – | – | – | > 100 | – | > 100 | – | > 100 | – | – | – | – | > 100 | –
15 | CCCN1CN(C(C(=O)N[C@@H]2C(=O)N3C2SC(C)(C)C3C(=O)O)c2ccc(O)cc2)CSC1=S (stereo partly specified) | – | > 100 | – | > 100 | – | > 100 | – | – | – | > 100 | – | > 100 | – | > 100 | – | – | – | > 100 | > 100 | –
16 | Cc1cc(S(=O)(=O)O)c(NC(=O)C(=O)Cc2cc(=O)oc3cc(O)ccc23)cc1Cl | – | > 100 | – | > 100 | – | > 100 | – | – | – | > 100 | – | > 100 | – | > 100 | – | – | – | > 100 | > 100 | –
17 | COc1ccc(-c2ccc(-c3ccc(C(=N)N)s3)s2)cc1 | 0.315 | 0.849 | 0.184 | 0.426 | 1.1 | 2.41 | – | – | 0.195 | 0.415 | 2.22 | 4.14 | 0.208 | 0.485 | – | – | 1.16 | 2.71 | 0.423 | 0.208
18 | O=C1c2ccccc2-c2c1c1ccccc1c(=O)n2CCCCl | 1.61 | 4.38 | 12.7 | > 100 | 7.88 | 28.5 | 2.18 | 62.4 | 5.99 | > 100 | 47.4 | > 100 | 3.86 | > 100 | 14.6 | 58.3 | 16.8 | 43.3 | – | –
19 | C/C(CC(=O)Nc1cccc(Cl)c1C)=N\NC(=O)c1ccncc1 | – | > 100 | – | > 100 | – | – | – | – | – | – | – | > 100 | – | > 100 | – | – | – | > 100 | > 100 | –
20 | Cc1ccc(C)c(N=C2NC(=O)C(CC(=O)Nc3ccc(Cl)cc3Cl)S2)c1 (stereo unspecified) | – | > 100 | – | > 100 | – | 96.2 | – | – | – | > 100 | – | > 100 | – | > 100 | – | – | – | – | > 100 | –
21 | CC(C)C(=O)NS(=O)(=O)c1ccccc1 | – | > 100 | – | > 100 | – | > 100 | – | – | – | – | – | > 100 | – | > 100 | – | – | – | > 100 | > 100 | –
22 | CC(=O)O[C@H]1CCC2[C@@H]3CCC4Nc5[nH]ncc5C[C@]4(C)C3CC[C@@]21C (stereo partly specified) | – | 58.6 | – | > 100 | – | > 100 | – | – | – | > 100 | – | > 100 | – | 66.5 | – | – | – | – | 42.5 | –
